Experimental data from patent US9827216B2, “Nutritional support to prevent and/or mitigate bone marrow toxicity from a cancerous tumor” (Nestec S.A., priority 2008, dated 2017).

How the values were obtained:
[1] = test system: NK cell; conditions: about 750 mg per day for two weeks, cited from earlier work
[2] = test system: γδ T cells; conditions: acid hydrolysed, diluted in media; peripheral blood mononuclear cells; (5%-75%); cited from earlier work
[3] = test system: red blood cell, white blood cell and immune cell populations; test: Haematological evaluation and flow cytometric analysis, test diets with chemotherapy (Example 2); format: in vivo, mice; conditions: for Global lymphocyte population: following chemotherapy, supplemented diets
Protocol: (§1) The animals were distributed into 7 different group diets. There was a control group that received the diet AIN 93 for adult rodents (maintenance). Test diets were administered in doses appropriate to the animal model: (a) Ctrl diet were supplemented with 1% (w/w) L-arginine, (b) 25% of the protein was replaced by glutamine, (c) 1% (w/w) L-citrulline, (d) 1 g/Kg body weight with active hexose correlated compound, (e) 20 mg/day of RNA nucleotides and (f) 25 mg/day of lactoferrin. […] Control animals without chemotherapeutic treatment were run in parallel for all tested diets. Body weight was assessed every two days. Blood samples were obtained at day 2, 4 and 10 after the chemo-treatment and at sacrifice (14 or 28 days). An autopsy was performed and tumor mass was assessed.

[4] = test system: MCA-OVA 1×10^6 tumor cells; test: Tumor growth evaluation, test diets with or without chemotherapy (Example 2); format: in vivo, mice
Protocol: The animals were distributed into 7 different group diets. There was a control group that received the diet AIN 93 for adult rodents (maintenance). […] Control animals without chemotherapeutic treatment were run in parallel for all tested diets. Body weight was assessed every two days. Blood samples were obtained at day 2, 4 and 10 after the chemo-treatment and at sacrifice (14 or 28 days). An autopsy was performed and tumor mass was assessed.
Methylcholanthrene (MCA) induced sarcoma cell line expressing the exogenous antigen ovalbumin (OVA) was grown in DMEM or RPMI 1640 supplemented with 2 mM L-glutamine, 10 mM HEPES, 20 μM 2-mercaptoethanol, 150 U/mL streptomycin, 200 U/mL penicillin, and 10% heat-inactivated FBS. 1×10^6 tumor cells were injected in the flank of the mice 6 days prior to the chemotherapy.
Growth of tumors was monitored every 2 d by using calipers, and tumor volume was calculated by using the formula length×width×width×0.52 mm^3.

[5] = test system: immune cells; test: Nutritional intervention on immune cells in tumor burdened animals with and without chemotherapy (FIG. 11); format: in vivo; conditions: during the second phase (tumor-induced toxicity)
Source text: FIG. 11 illustrates a graph of the effect of nutritional intervention on immune cells in tumor burdened animals with and without chemotherapy in accordance with an embodiment of the present disclosure.

[6] = test system: tongue and/or esophageal tumors; test: Carcinogen induction of tongue and/or esophageal tumors; format: in vivo, CB6F1-Tg rasH2@Jcl mice; conditions: carcinogen-induced
Source text: Male CB6F1-Tg rasH2@Jcl mice (Tg) at 8 weeks of age are obtained and maintained in plastic cages. They are all allowed free access to a powdered basal diet of CRF (Charles River Formula)-1. A carcinogen, 4-nitroquinoline 1-oxide is used to induce tongue and/or esophageal tumors in this study.

[7] = test system: red blood cell, white blood cell and immune cell populations; test: Haematological evaluation and flow cytometric analysis of tumor-bearing mice after chemotherapy (Example 1); format: in vivo; conditions: after the chemotherapy
[8] = Body weight of tumor-bearing mice on test diets with chemotherapy (Example 2); format: in vivo; conditions: maximal dose (10 mg/kg)
Protocol: as §1

[9] = Body weight of tumor-bearing mice after chemotherapy (Example 1); conditions: maximal dose (10 mg/kg), of the initial body weight
Protocol: Inbred eight-week-old C57BL/6 (H-2b) mice were used in the experiments. Mice were inoculated subcutaneously (s.c.) on the left flank with 1×10^6 tumor cells, and tumor growth was monitored every 2 days by caliper measurement. 6 days after the tumor inoculation the animals were treated either with oxaliplatin or doxorubicin. Tumor growth was monitored every two days after the chemotherapeutic treatment and they were sacrificed after two weeks of tumor implantation. Some experiments were carried out until 28 days post-chemo to better assess tumor growth.
Body weight was assessed every two days until sacrifice.

vitamin E
NKG2D expression ([1]; all patients studied): small but consistent induction
NK cell cytolytic activity ([1]; cancer patients): significantly improved

CCNC(=O)CC[C@H](N)C(=O)O [L-theanine]
expansion of γδ T cells [2]: 15 fold

N=C(N)NCCC[C@H](N)C(=O)O [arginine, L-arginine]
loss of CD3+ cells ([3]; around 10 days post-chemotherapy, supplemented diet): partially modulated
fall of erythrocytes after chemotherapy ([3]; diet supplemented 1% (w/w), between days 6 and 10 post-chemo, vs control diet and other treatments (FIG. 3)): prevented the marked fall of erythrocytes
tumor size ([4]; combination with the chemotherapy treatment vs chemotherapy alone (FIG. 4)): further reduced the tumor size
progression of the implanted tumor ([4]; supplemented diet compared to other groups): delayed progression
immune cell population / concentration [5]: increase immune cell concentration

O=[N+]([O-])c1cc[n+]([O-])c2ccccc12 [4-nitroquinoline 1-oxide]
mice developing tumors in the esophagus [6]: 60%
mice developing tumors on the tongue [6]: 100%

NC(=O)NCCC[C@H](N)C(=O)O [citrulline, L-citrulline]
Global lymphocyte population [3]: less depressed

O=C1[O][Pt]2([NH][C@@H]3CCCC[C@H]3[NH]2)[O]C1=O [oxaliplatin]
white blood cell counts [7]: leukocyte counts that were higher that the baseline counts
Maximal weight loss [8]: around 15%
Maximal weight loss [9]: around 15%

NC(=O)CC[C@H](N)C(=O)O [glutamine]
Global lymphocyte population [3]: less depressed
